Holding throughout (type): biochemical
The target in one experiment is ROCK1 (Homo sapiens, UniProt Q13464). Nature of the experiment: In vitro Rho kinase inhibitory activity assay, ADP-Glo, Method B (ATP 200 μM). The following applies: read-out: Method B ROCK 1 (Ki). How it is done: (§1) In Vitro Inhibitory Activity Assay Description (Method B)
(§2) The effectiveness of compounds of the present invention to inhibit Rho kinase activity can be determined in a 10 μL assay containing 40 mM Tris pH7.5, 20 mM MgCl2 0.1 mg/mL BSA, 50 μM DTT and 2.5 μM peptide substrate (Myelin Basic Protein) using an ADP-Glo kit (Promega). Compounds were dissolved in DMSO such that the final concentration of DMSO was 1% in the assay. All reactions/incubations are performed at 25° C. Compound (2 ul) and either Rho kinase 1 or 2 (4 μL) were mixed and incubated for 30 min. Reactions were initiated by addition of ATP (4 μL) such that the final concentration of ATP in the assay was 200 μM. After a 1 hour incubation 10 μL of ADP-Glo Reagent was added and after a further 45 minute incubation 20 ul of Kinase Detection Buffer was added and the mixture incubated for a further 30 minutes. The luminescent signal was measured on a luminometer. […] Compounds were tested in dose-response format and the inhibition of kinase activity was calculated at each concentration of compound. To determine the IC50 (concentration of compound required to inhibit 50% of the enzyme activity) data were fit to a plot of % inhibition vs Log 10 compound concentration using a sigmoidal fit with a variable slope and fixing the maximum to 100% and the minimum to 0%. To determine the Ki values the Cheng-Prusoff equation was utilized (Ki=IC50/(1+[S]/Km).
(ADP-Glo turns the ADP formed in a reaction into a luminescent signal.)

In another experiment the target is ROCK2 (Homo sapiens, UniProt O75116). The description is as above. The following applies: read-out: Method B ROCK 2 (Ki). How it is done:
as §1, §2

Another experiment addresses PKA (Homo sapiens, UniProt P17612). Nature of the experiment: In vitro inhibitory activity assay for PKA, ADP-Glo, reported as selectivity ratio vs ROCK2. The following applies: Ki for PKA divided by Ki of ROCK2 (Method B). The procedure: In Vitro Inhibitory Activity Assay Description for PKA
The effectiveness of compounds of the present invention to inhibit PKA activity can be determined in a 10 μL assay containing 40 mM Tris pH7.5, 20 mM MgCl2 0.1 mg/mL BSA, 50 μM DTT and 260 μM peptide substrate (kemptide) using an ADP-Glo kit (Promega). Compounds were dissolved in DMSO such that the final concentration of DMSO was 1% in the assay. All reactions/incubations are performed at 25° C. Compound and PKA enzyme (6 μL) were mixed and incubated for 30 min. Reactions were initiated by addition of ATP (4 μL) such that the final concentration of ATP in the assay was 10 μM. After a 30 minute incubation 10 μL of ADP-Glo Reagent was added and after a further 1 hour incubation 20 μL of Kinase Detection Buffer was added and the mixture incubated for a further 45 minutes. The luminescent signal was measured on a luminometer. […] Compounds were tested in dose-response format and the inhibition of kinase activity was calculated at each concentration of compound. To determine the IC50 (concentration of compound required to inhibit 50% of the enzyme activity) data were fit to a plot of % inhibition vs Log10 compound concentration using a sigmoidal fit with a variable slope and fixing the maximum to 100% and the minimum to 0%. To determine the Ki values the Cheng-Prusoff equation was utilized (Ki=IC50/(1+[S]/Km).
In vitro inhibitory activities for PKA were reported as selectivity ratio vs. ROCK2. Selectivity ratio PKA/ROCK2 was calculated by dividing the Ki value for PKA by Ki value of ROCK2 (Method B) and reported into table 1.

Bounds are passed on as bounds.

Sequence of ROCK1 (Q13464 whole entry): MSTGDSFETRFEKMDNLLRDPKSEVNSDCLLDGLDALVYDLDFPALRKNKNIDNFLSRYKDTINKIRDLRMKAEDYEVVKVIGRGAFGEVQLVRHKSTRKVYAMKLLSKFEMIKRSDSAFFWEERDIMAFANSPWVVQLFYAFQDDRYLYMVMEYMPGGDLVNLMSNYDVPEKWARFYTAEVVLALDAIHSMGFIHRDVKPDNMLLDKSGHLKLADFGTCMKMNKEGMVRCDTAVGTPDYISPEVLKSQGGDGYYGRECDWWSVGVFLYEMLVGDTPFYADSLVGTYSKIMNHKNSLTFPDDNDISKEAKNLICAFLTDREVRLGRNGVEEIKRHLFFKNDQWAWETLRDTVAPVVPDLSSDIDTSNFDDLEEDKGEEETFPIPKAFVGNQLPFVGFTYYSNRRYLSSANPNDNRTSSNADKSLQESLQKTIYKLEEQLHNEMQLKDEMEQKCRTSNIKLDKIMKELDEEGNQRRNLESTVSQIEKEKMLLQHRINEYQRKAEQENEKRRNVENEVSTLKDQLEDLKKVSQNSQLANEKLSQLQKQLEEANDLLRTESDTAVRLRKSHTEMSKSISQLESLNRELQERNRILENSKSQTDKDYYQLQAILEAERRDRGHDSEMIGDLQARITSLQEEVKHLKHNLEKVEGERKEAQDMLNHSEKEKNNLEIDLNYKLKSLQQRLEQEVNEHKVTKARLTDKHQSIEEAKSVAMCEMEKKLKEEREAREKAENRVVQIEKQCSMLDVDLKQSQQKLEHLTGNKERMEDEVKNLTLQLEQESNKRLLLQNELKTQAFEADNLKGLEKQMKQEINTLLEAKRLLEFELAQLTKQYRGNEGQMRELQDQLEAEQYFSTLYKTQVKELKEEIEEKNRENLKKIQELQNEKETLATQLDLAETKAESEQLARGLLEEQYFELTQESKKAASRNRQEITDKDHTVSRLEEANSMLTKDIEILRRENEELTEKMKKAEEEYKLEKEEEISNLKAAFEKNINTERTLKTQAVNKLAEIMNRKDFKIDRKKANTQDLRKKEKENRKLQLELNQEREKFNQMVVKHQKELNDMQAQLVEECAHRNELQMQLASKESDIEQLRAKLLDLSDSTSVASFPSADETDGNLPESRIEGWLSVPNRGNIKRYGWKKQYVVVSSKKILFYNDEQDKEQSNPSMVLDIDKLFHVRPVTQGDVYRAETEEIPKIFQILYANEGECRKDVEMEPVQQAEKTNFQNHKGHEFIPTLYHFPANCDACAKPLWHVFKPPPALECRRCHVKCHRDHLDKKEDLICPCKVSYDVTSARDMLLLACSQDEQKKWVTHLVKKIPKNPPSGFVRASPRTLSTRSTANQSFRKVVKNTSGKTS
Sequence of ROCK2 (O75116 whole entry): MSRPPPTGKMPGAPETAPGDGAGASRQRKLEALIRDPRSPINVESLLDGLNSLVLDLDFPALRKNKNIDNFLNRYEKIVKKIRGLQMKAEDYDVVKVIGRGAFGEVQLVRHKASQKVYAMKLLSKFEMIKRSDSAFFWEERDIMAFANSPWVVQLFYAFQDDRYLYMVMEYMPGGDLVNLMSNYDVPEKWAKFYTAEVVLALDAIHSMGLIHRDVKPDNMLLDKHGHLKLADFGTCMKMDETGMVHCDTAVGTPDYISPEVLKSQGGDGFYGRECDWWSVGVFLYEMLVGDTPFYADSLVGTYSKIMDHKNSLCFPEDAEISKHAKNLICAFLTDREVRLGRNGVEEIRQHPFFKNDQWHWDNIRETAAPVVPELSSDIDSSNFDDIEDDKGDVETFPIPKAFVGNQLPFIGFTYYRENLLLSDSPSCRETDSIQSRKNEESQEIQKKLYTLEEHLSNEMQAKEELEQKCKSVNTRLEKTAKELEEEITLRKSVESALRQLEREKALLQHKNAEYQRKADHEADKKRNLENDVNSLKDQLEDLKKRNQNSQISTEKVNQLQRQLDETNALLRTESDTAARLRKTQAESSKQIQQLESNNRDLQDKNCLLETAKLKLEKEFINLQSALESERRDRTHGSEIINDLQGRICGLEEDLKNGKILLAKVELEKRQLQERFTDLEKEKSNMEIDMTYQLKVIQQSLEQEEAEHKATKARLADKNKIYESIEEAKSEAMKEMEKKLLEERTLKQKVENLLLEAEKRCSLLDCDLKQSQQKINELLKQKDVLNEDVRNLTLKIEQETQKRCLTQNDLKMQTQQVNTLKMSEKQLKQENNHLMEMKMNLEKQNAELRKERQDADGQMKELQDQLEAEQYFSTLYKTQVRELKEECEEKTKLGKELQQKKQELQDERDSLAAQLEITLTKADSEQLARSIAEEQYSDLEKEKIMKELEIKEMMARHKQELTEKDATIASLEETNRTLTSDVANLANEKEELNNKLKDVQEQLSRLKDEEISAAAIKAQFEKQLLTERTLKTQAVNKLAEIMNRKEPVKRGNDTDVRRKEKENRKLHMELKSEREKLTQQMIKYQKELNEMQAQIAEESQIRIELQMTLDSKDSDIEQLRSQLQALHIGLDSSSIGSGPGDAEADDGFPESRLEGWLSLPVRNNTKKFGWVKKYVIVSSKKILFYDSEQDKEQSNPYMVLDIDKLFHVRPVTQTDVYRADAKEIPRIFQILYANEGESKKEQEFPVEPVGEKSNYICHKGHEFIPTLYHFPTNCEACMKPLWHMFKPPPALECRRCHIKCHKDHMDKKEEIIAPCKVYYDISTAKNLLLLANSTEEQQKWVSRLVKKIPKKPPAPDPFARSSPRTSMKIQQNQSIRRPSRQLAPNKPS

Usually Ki stands for a dissociation constant, usually derived from enzyme kinetics or from competition with a known ligand. Turning to `O=C(Nc1ccncn1)c1cccc(CNc2ncc(-c3ccncc3)c3c2CCO3)c1` [Example 18, 3-(((7-(pyridin-4-yl)-2,3-dihydrofuro[3,2-c]pyridin-4-yl)amino)methyl)-N-(pyrimidin-4-yl)benzamide], the Ki on ROCK1 and on ROCK2 was at most 3 nM each time. The “Ratio (PKA/ROCK2)” value at PKA is recorded as “*** (ratio≥10)”.

`O=C(NC1CC(CO)C1)c1cccc(CNc2ncc(-c3ccncc3)c3c2CCO3)c1` (stereo not drawn) [Example 13, N-(3-(hydroxymethyl)cyclobutyl)-3-(((7-(pyridin-4-yl)-2,3-dihydrofuro[3,2-c]pyridin-4-yl)amino)methyl)benzamide]: the Ki on ROCK1 is 3 to 30 nM; at ROCK2, at most 3 nM. For the same molecule, on PKA, the “Ratio (PKA/ROCK2)” value is “*** (ratio≥10)”.

Turning to `Cn1ccc(CNC(=O)c2cccc(CNc3ncc(-c4ccncc4)c4c3CCO4)c2)n1` [Example 19, N-((1-methyl-1H-pyrazol-3-yl)methyl)-3-(((7-(pyridin-4-yl)-2,3-dihydrofuro[3,2-c]pyridin-4-yl)amino)methyl)benzamide], the values for the Ki at ROCK1 and on ROCK2 were 3 to 30 nM and at most 3 nM, respectively. In addition, the “Ratio (PKA/ROCK2)” value on PKA is on record as “*** (ratio≥10)”.

With `CC(=O)N1CCC(CCNC(=O)c2cccc(CNc3ncc(-c4ccncc4)c4c3CCO4)c2)CC1` [Example 44, N-(2-(1-Acetylpiperidin-4-yl)ethyl)-3-(((7-(pyridin-4-yl)-2,3-dihydrofuro[3,2-c]pyridin-4-yl)amino)methyl)benzamide], the inhibition constant (Ki) at ROCK1 and at ROCK2 was at most 3 nM each time. Further, the “Ratio (PKA/ROCK2)” value at PKA is “*** (ratio≥10)”.

In the case of `O=C(NCCC1CCN(C2COC2)CC1)c1cccc(CNc2ncc(-c3ccncc3)c3c2CCO3)c1` [Example 42, N-(2-(1-(Oxetan-3-yl)piperidin-4-yl)ethyl)-3-(((7-(pyridin-4-yl)-2,3-dihydrofuro[3,2-c]pyridin-4-yl)amino)methyl)benzamide], the Ki at ROCK1 and on ROCK2 was at most 3 nM in each case. Besides, the “Ratio (PKA/ROCK2)” value on PKA is given as “*** (ratio≥10)”.

For the molecule `CNC(=O)c1cccc(CNc2ncc(-c3cc[nH]c(=O)c3)c3c2CCO3)c1` [Example B, N-methyl-3-(((7-(2-oxo-1,2-dihydropyridin-4-yl)-2,3-dihydrofuro[3,2-c]pyridin-4-yl)amino)methyl)benzamide, reference compound], the Ki on ROCK1 and on ROCK2 was above 30 nM in each case. Besides, the “Ratio (PKA/ROCK2)” value on PKA is reported as “*** (ratio≥10)”.

For `O=C(NCC1(O)CC1)c1cccc(CNc2ncc(-c3ccncc3)c3c2CCO3)c1` [Example 9, N-((1-hydroxycyclopropyl)methyl)-3-(((7-(pyridin-4-yl)-2,3-dihydrofuro[3,2-c]pyridin-4-yl)amino)methyl)benzamide], the Ki on ROCK1 and at ROCK2 was 3 to 30 nM throughout. The “Ratio (PKA/ROCK2)” value on PKA was “*** (ratio≥10)”.

For the molecule `CNC(=O)c1cccc(CNc2ncc(-c3ccncc3)c3c2OCC3)c1` [Example C, N-methyl-3-(((4-(pyridin-4-yl)-2,3-dihydrofuro[2,3-c]pyridin-7-yl)amino)methyl)benzamide, reference compound], the Ki on ROCK1 and at ROCK2 was above 30 nM throughout. Also, the “Ratio (PKA/ROCK2)” value at PKA is reported as “*** (ratio≥10)”.

In the case of `O=C(NCc1cocn1)c1cccc(CNc2ncc(-c3ccncc3)c3c2CCO3)c1` [Example 8, N-(oxazol-4-ylmethyl)-3-(((7-(pyridin-4-yl)-2,3-dihydrofuro[3,2-c]pyridin-4-yl)amino)methyl)benzamide], the Ki was 3 to 30 nM at ROCK1 and at most 3 nM on ROCK2. For the same molecule, on PKA, the “Ratio (PKA/ROCK2)” value is listed as “*** (ratio≥10)”.

With `O=C(NC1CC2CN(C3COC3)CC2C1)c1cccc(CNc2ncc(-c3ccncc3)c3c2CCO3)c1` (single isomer, unassigned) [Example 43b, N-(2-(oxetan-3-yl)octahydrocyclopenta[c]pyrrol-5-yl)-3-(((7-(pyridin-4-yl)-2,3-dihydrofuro[3,2-c]pyridin-4-yl)amino)methyl)benzamide], the Ki at ROCK1 and at ROCK2 was at most 3 nM each time. In addition, on PKA, the “Ratio (PKA/ROCK2)” value is given as “*** (ratio≥10)”.

In the case of `Cn1cnc(CNC(=O)c2cccc(CNc3ncc(-c4ccncc4)c4c3CCO4)c2)c1` [Example 3, N-((1-methyl-1H-imidazol-4-yl)methyl)-3-(((7-(pyridin-4-yl)-2,3-dihydrofuro[3,2-c]pyridin-4-yl)amino)methyl)benzamide], the Ki at ROCK1 was 3 to 30 nM; at ROCK2 it was at most 3 nM. For the same molecule, the “Ratio (PKA/ROCK2)” value at PKA is given as “*** (ratio≥10)”.

For the molecule `O=C(NC1CC1)c1cccc(CNc2ncc(-c3ccncc3)c3c2CCO3)c1` [Example 16, N-cyclopropyl-3-(((7-(pyridin-4-yl)-2,3-dihydrofuro[3,2-c]pyridin-4-yl)amino)methyl)benzamide], the Ki on ROCK1 and on ROCK2 was 3 to 30 nM throughout. Besides, the “Ratio (PKA/ROCK2)” value at PKA is recorded as “*** (ratio≥10)”.

As for `Cc1cc(CNC(=O)c2cccc(CNc3ncc(-c4ccncc4)c4c3CCO4)c2)no1` [Example 2, N-((5-methylisoxazol-3-yl)methyl)-3-(((7-(pyridin-4-yl)-2,3-dihydrofuro[3,2-c]pyridin-4-yl)amino)methyl)benzamide], the Ki at ROCK1 was 3 to 30 nM; on ROCK2, at most 3 nM. Moreover, on PKA, the “Ratio (PKA/ROCK2)” value is “*** (ratio≥10)”.

Turning to `COc1cc(NC(=O)c2cccc(CNc3ncc(-c4ccncc4)c4c3CCO4)c2)ncn1` [Example 31, N-(6-Methoxypyrimidin-4-yl)-3-(((7-(pyridin-4-yl)-2,3-dihydrofuro[3,2-c]pyridin-4-yl)amino)methyl)benzamide], the Ki on ROCK1 and at ROCK2 was at most 3 nM in each case. Besides, the “Ratio (PKA/ROCK2)” value on PKA is reported as “*** (ratio≥10)”.

With `O=C(Nc1cccnn1)c1cccc(CNc2ncc(-c3ccncc3)c3c2CCO3)c1` [Example 17, N-(pyridazin-3-yl)-3-(((7-(pyridin-4-yl)-2,3-dihydrofuro[3,2-c]pyridin-4-yl)amino)methyl)benzamide], the inhibitory constant (Ki) at ROCK1 and at ROCK2 was 3 to 30 nM in each case. Besides, the “Ratio (PKA/ROCK2)” value at PKA is given as “*** (ratio≥10)”.

Turning to `CN(C)CCn1cc(C(=O)Nc2cccc(CNc3ncc(-c4ccncc4)c4c3CCO4)c2)cn1` [Example 41, 1-(2-(Dimethylamino)ethyl)-N-(3-(((7-(pyridin-4-yl)-2,3-dihydrofuro[3,2-c]pyridin-4-yl)amino)methyl)phenyl)-1H-pyrazole-4-carboxamide], the Ki on ROCK1 was 3 to 30 nM; at ROCK2, at most 3 nM. The “Ratio (PKA/ROCK2)” value on PKA is “*** (ratio≥10)”.

With `O=C(NC1CCOCC1)c1cccc(CNc2ncc(-c3ccncc3)c3c2CCO3)c1` [Example 7, 3-(((7-(pyridin-4-yl)-2,3-dihydrofuro[3,2-c]pyridin-4-yl)amino)methyl)-N-(tetrahydro-2H-pyran-4-yl)benzamide], the Ki on ROCK1 and on ROCK2 was 3 to 30 nM throughout. Also, the “Ratio (PKA/ROCK2)” value on PKA was “*** (ratio≥10)”.

On to `COc1ccc(NC(=O)c2cccc(CNc3ncc(-c4ccncc4)c4c3CCO4)c2)nc1` [Example 14, N-(5-methoxypyridin-2-yl)-3-(((7-(pyridin-4-yl)-2,3-dihydrofuro[3,2-c]pyridin-4-yl)amino)methyl)benzamide], for which the Ki on ROCK1 and on ROCK2 was at most 3 nM throughout. Besides, the “Ratio (PKA/ROCK2)” value on PKA is given as “*** (ratio≥10)”.

For the origin of these results see US12534474B2, “Dihydrofuropyridine derivatives as rho-kinase inhibitors” (CHIESI FARMACEUTICI S.P.A., priority 2020, dated 2026).
